Measured values published in PubChem BioAssay (NCI).
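Tested at 5 concentrations; 48 h exposure; 96-well plates; endpoints linearly interpolated, else capped at highest concentration. At the GI50, growth is halved. TGI marks complete inhibition of growth.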

Key:
Experiment in all cases: DTP human tumour cell line panel, 48 h
[1] = test system: BT-549 breast
[2] = test system: NCI/ADR-RES ovarian
[3] = test system: COLO 205 colon
[4] = test system: T-47D breast
[5] = test system: MDA-MB-435
[6] = test system: HS 578T breast
[7] = test system: HL-60(TB) leukemia

Row | SMILES | GI50 [1] | TGI [1] | GI50 [2] | TGI [2] | GI50 [3] | TGI [3] | GI50 [4] | TGI [4] | GI50 [5] | TGI [5] | GI50 [6] | TGI [6] | GI50 [7] | TGI [7]
1 | CC1(C)CC(O)CCCCCCOc2c(CN)cccc2NC(=O)c2nc(cnc2N)-c2ccc(cc2)S1(=O)=O (configuration not stated) | 1.25 µM | 2.85 µM | 2.83 µM | 13.4 µM | 0.394 µM | 2.08 µM | 1.67 µM | 4.15 µM | 0.558 µM | 2.16 µM | – | – | – | –
2 | O=C1C(Nc2cccc(O)c2)=C(Sc2ccc(Cl)cc2)C(=O)N1Cc1ccccc1 | – | – | 7.21 µM | 36.1 µM | 28.2 µM | > 100 µM | 29.1 µM | > 100 µM | 6.43 µM | 20 µM | 13.3 µM | 58.1 µM | – | –
3 | C#CCOc1cccc(Nc2ncnc3c2ncn3C2CCN(C(=O)CCl)C2)c1 (configuration not stated) | 12.1 µM | 26.6 µM | 41.3 µM | > 100 µM | – | – | – | – | 20.4 µM | 53.5 µM | 24.7 µM | 91.5 µM | 19.4 µM | 41.8 µM
4 | CCC(C)c1cnc(CC(C)C)c(=O)[nH]1 (configuration not stated) | – | > 100 µM | – | – | – | > 100 µM | – | > 100 µM | – | > 100 µM | – | > 100 µM | – | –
5 | CCC[CH2][Sn]1([CH2]CCC)[O]CC([CH2][Sn]([c]2ccccc2)([c]2ccccc2)[c]2ccccc2)[O]1 (configuration not stated) | – | – | – | – | 10.4 µM | 23 µM | – | – | – | – | – | – | 2.47 µM | 8.38 µM
6 | COc1ccc(Cn2c3c(c4c(O)cccc42)C(=O)c2ccccc2-3)cc1 | – | – | 2.51 µM | 11.3 µM | 25.9 µM | 92.3 µM | 11 µM | 37.9 µM | 13.3 µM | 30.8 µM | 4.44 µM | 20.4 µM | – | –
7 | O=C1C(Cl)=C(Nc2ccc3c(c2NC2=C(Cl)C(=O)c4ccccc4C2=O)C(=O)c2ccccc2C3=O)C(=O)c2ccccc21 | 1.36 µM | 2.83 µM | – | – | 1.69 µM | 3.72 µM | 2.19 µM | 5.99 µM | 0.346 µM | 1.04 µM | 2.1 µM | 6.88 µM | 2.36 µM | 14 µM
8 | C=CC1=C(C)C(Cc2[nH]c(/C=c3\[nH]/c(=C/C4=NC(=O)C(C)/C4=C\C)c(C)c3CCC(=O)O)c(CCC(=O)OC)c2C)NC1=O (configuration not stated) | – | – | 48.8 µM | > 100 µM | 20.2 µM | 36.3 µM | 36.8 µM | > 100 µM | 23.9 µM | 62 µM | – | – | 39.8 µM | > 100 µM
9 | CCOC(CN(C)C(=O)OCC(Cl)(Cl)Cl)OCC | – | > 100 µM | – | > 100 µM | – | > 100 µM | – | – | – | > 100 µM | – | > 100 µM | – | 59.1 µM
